US20250019379A1, “NEW CRYSTAL FORM OF COMPOUND, AND PREPARATION METHOD THEREFOR AND USE THEREOF” (E-nitiate Biopharmaceuticals (Hangzhou) Co., Ltd, priority 2021, published 2025)
Where “and” joins values, the source holds several entries; their conditions need not be identical. Equal entries are not always repeated. Marks after values point to notes of the source that are not given here.

Legend:
[1] = system: atopic dermatitis animal model; assay: Atopic dermatitis animal model (dinitrochlorobenzene induced); type: in vivo, BALB/C mice; conditions: for Inhibition rate of auricular thickening / Inhibition rate of skin thickening: 10th day of treatment
Excerpt: BALB/C mice, 55 pieces, female, were 6 weeks old at the time of purchase and 8 weeks old at the time of experiment, weighing 18 g-20 g. The animals were from Shanghai Lingchang Biotechnology Co, Ltd (SCXK (Shanghai) 2018-0003), experimental animal production certificate number 20180003012342: experimental animal use license number; SYXK(Shanghai)2020-0001 (Via Biotechnology (Shanghai) Ltd.).
Modeling and administration method; Use depilatory cream to remove the hair of an area of about 5 cm×2 cm from the top of the head to the back of each animal. The application time of the depilatory cream should be controlled within 2 minutes. Wash the depilated area with warm water and wash off the depilatory agent, immediately use a hair dryer to dry the animal's hair, and place the animal on a 37° C. constant-temperature electric blanket for 1 h-2 h. After the animal moves freely, place it in a breeding cage and recover for 1 day (if the animal's skin is red, swollen and damaged after hair removal, it will its elimination). On the second day, 42 animals with normal skin were selected and randomly divided into groups according to body weight, with 6 animals in each group, totaling 7 groups. Except for the G1 normal control group, each animal in the other groups was evenly smeared with 200 μL of 0.5 wt % dinitrochlorobenzene solution (the solvent was acetone and olive oil with a mass ratio of 3:1) on the back and auricle for three consecutive days every day. Induction (the first stage of induction), the second stage of induction started after 14 days, and was induced with 1 wt % dinitrochlorobenzene solution (the solvent was acetone and olive oil with a mass ratio of 3:1) every three days until the end of the experiment, start treatment and administration at the same time, and group administration is shown in Table 6.
Skin thickness (double layer): Use a vernier caliper to measure the double layer thickness of the back skin on the 1 day before modeling, and on the 14th, 17th, 20th, 23rd, 26th, and 28th days after modeling.
Auricle thickness: Use a vernier caliper to measure the thickness of the right auricle 1 day before modeling, and on days 14, 17, 20, 23, 26, and 28 after modeling.
AD-SI score: The condition score refers to the clinical SI scoring standard, and scores three indicators: skin color/erythema, scaly erythema, scaly/peeling/lichenification, thickening, and thickening/edema degree. The total score is 12 points. Scoring standard as follows:
Erythema/skin color: 0 points, none; 1 points, slight: light red; 2 points, moderate: red; 3 points, significant: dark red; 4 points, very obvious: extremely deep red.
Scaling/peeling/lichenification: 0 points, none; 1 point, slight: there are scales/peeling/lichenification on part of the epidermis, mainly subtle; 2 points, moderate: most of the skin surface is completely or incompletely covered with Scaling/peeling/lichenification, flaky; 3 points, significant: almost all skin is covered with scales/peeling/lichenification, and the scales/peeling/lichenification are thick and layered; 4 points, very obvious: all skin is covered with Scaling/peeling/lichenification, very thick and layered.
Thickening/edema: 0 points, none: flush with normal skin; 1 points, slight: slightly higher than the normal skin surface: 2 points, moderate: moderately raised, with round or sloped plaque edges: 3 points, obvious Score: The plaque is hypertrophic and the bulge is obvious; 4 points, very significant: it is highly thickened and the bulge is very obvious. Skin/auricle hyperplasia inhibition rate (%)=1−[(skin/auricle thickness of the treatment group−skin/auricle thickness of the blank control group)/skin/auricle thickness of the negative control group−skin/auricle of the blank control group thickness)]%.
All data are expressed as Mean±SD or Mean±SEM. Use the statistical analysis software SPSS23.0 to conduct normal distribution and homogeneity of variance tests on the data. […]

[2] = system: psoriasis animal model; assay: Psoriasis animal model (imiquimod cream induced); type: in vivo, C57/BL 6J mice; conditions: 30 mg/kg oral twice a day
Excerpt: C57/BL 6J mice, 75, female, 7-8 weeks old, weight 18 g-20 g. The animals were from Zhejiang Weitong Lihua Experimental Animal Technology Co., Ltd. (SCXK (Zhejiang) 2019-0001), experimental animal production certificate number 20210107Abzz0619000247; experimental animal use license number: SYXK (Shanghai) 2020-0001 (Via Biotechnology (Shanghai Co., Ltd).
Modeling and administration method: Use depilatory cream to remove hair from an area of about 2 cm×3 cm on the back of each animal. Control the application time of depilatory cream within 2 minutes. Wash the depilated area with warm water, wash off the depilatory agent, and use immediately. Dry the animal's hair with a hair dryer, and place the animal on a constant-temperature electric blanket at 37° C. for 1 h-2 h. After the animal moves freely, it is placed in a cage for normal rearing and recovery for 1 day (if any animal has red, swollen and damaged skin after hair removal, remove it). On the second day, 54 animals with normal skin were selected and randomly grouped according to body weight, with 9 animals in each group, a total of 6 groups. Each animal in the G2-G6 group was evenly applied with 60 mg (60 μL) of 5 wt % imiquimod cream (Aldara) on the back every day for seven consecutive days.
Skin thickness (double-layer): Use a vernier caliper to measure the double-layer thickness of the back skin before drug administration and modeling, and on days 1, 3, 5, and 7 after drug administration.
PASI score: The condition score refers to the clinical PASI scoring standard, and scores three indicators: erythema, scale, and thickness. The total score is 12 points. The scoring standards are as follows:
Erythema: 0 points, none; 1 points, slight: light red; 2 points, moderate: red; 3 points, significant: dark red; 4 points, very obvious: extremely deep red.
Scaling: 0 points, none; 1 point, slight: there are scales on part of the epidermis, mainly fine scales; 2 points, moderate: most of the skin surface is completely or incompletely covered with scales, in a flaky form; 3 points, Significant: almost all skin is covered with scales, and the scales are thick and layered; 4 points, very obvious: all the skin is covered with scales, and the scales are thick and layered.
Plaque thickening degree: 0 points, none: flush with normal skin; 1 points, slight: slightly higher than the skin surface: 2 points, moderate: moderately raised, with round or sloped plaque edges; 3 points, obvious Score: The plaque is hypertrophic and the bulge is obvious; 4 points, very significant: it is highly thickened and the bulge is very obvious.
Skin proliferation inhibition rate (%)=1−[(skin thickness of the treatment group on the 7th day−skin thickness of the blank control group on the 7th day)/skin thickness of the negative control group on the 7th day−skin thickness of the blank control group on the 7th day)]%.
All data are expressed as Mean t SEM. The statistical analysis software SPSS23.0 was used to conduct normal distribution and homogeneity of variance tests on the data. Based on the results, the single-factor analysis of variance method was selected and the homogeneity of variance test was selected based on the results. *P<0.05 will be considered a statistically significant difference.

[3] = 30 mg/kg oral twice a day, Day 0
[4] = 30 mg/kg oral twice a day, Day 1
[5] = 30 mg/kg oral twice a day, Day 4
[6] = 30 mg/kg oral twice a day, Day 7
[7] = 30 mg/kg oral twice a day, Day 10
[8] = 10 mg/kg oral twice a day, Day 0
[9] = 10 mg/kg oral twice a day, Day 1
[10] = 10 mg/kg oral twice a day, Day 4
[11] = 10 mg/kg oral twice a day, Day 7
[12] = 10 mg/kg oral twice a day, Day 10

C[C@@H]1CCN(C(=O)CC#N)C[C@@H]1N(C)c1ncnc2[nH]ccc12 [Tofacitinib, reference compound]
Inhibition rate of auricular thickening ([1]; 30 mg/kg oral twice a day): 25.86%
Inhibition rate of skin thickening ([1]; 30 mg/kg oral twice a day): 27.86%
AD-SI score [1, 3]: 0.00 points
Average auricle thickness [1, 3]: 0.19 ± 0.01 mm
Average skin thickness (double layer) [1, 3]: 0.63 ± 0.03 mm
AD-SI score [1, 4]: 0.00 points
Average auricle thickness [1, 4]: 0.22 ± 0.01 mm
Average skin thickness (double layer) [1, 4]: 0.99 ± 0.03 mm
AD-SI score [1, 5]: 0.17 ± 0.41 points
Average auricle thickness [1, 5]: 0.28 ± 0.01 mm
Average skin thickness (double layer) [1, 5]: 1.13 ± 0.1 mm
AD-SI score [1, 6]: 7.17 ± 0.98 points
Average auricle thickness [1, 6]: 0.44 ± 0.03 mm
Average skin thickness (double layer) [1, 6]: 1.78 ± 0.11 mm
AD-SI score [1, 7]: 6.33 ± 1.37 points
Average auricle thickness [1, 7]: 0.64 ± 0.05 mm and 0.64 mm
Average skin thickness (double layer) [1, 7]: 2.08 ± 0.13 mm and 2.08 mm
Inhibition rate of skin thickening ([2]; 7th day of treatment): 69.2%
Average skin thickness (double layer) ([2]; Day 0): 0.51 ± 0.01 mm
PASI score ([2]; Day 0): 0.0 points
Average skin thickness (double layer) ([2]; Day 1): 0.66 ± 0.02 mm
PASI score ([2]; Day 1): 0.0 points
Average skin thickness (double layer) ([2]; Day 3): 1.28 ± 0.09** mm
PASI score ([2]; Day 3): 4.6 ± 0.50 points
Average skin thickness (double layer) ([2]; Day 5): 1.09 ± 0.06*** mm
PASI score ([2]; Day 5): 4.9 ± 0.42*** points
Average skin thickness (double layer) ([2]; Day 7): 1.05 ± 0.04*** mm and 1.05 mm
PASI score ([2]; Day 7): 2.8 ± 0.43*** points

CC[C@@H]1CN(C(=O)NCC(F)(F)F)C[C@@H]1c1cnc2cnc3[nH]ccc3n12 [Upatinib, Upadacitinib, reference compound]
Inhibition rate of auricular thickening ([1]; 10 mg/kg oral twice a day): 24.14%
Inhibition rate of skin thickening ([1]; 10 mg/kg oral twice a day): 20.40%
AD-SI score [1, 8]: 0.00 points
Average auricle thickness [1, 8]: 0.20 ± 0.01 mm
Average skin thickness (double layer) [1, 8]: 0.60 ± 0.02 mm
AD-SI score [1, 9]: 0.00 points
Average auricle thickness [1, 9]: 0.24 ± 0.01 mm
Average skin thickness (double layer) [1, 9]: 0.89 ± 0.04 mm
AD-SI score [1, 10]: 1.00 ± 0.00 points
Average auricle thickness [1, 10]: 0.32 ± 0.03**^ mm
Average skin thickness (double layer) [1, 10]: 1.07 ± 0.05 mm
AD-SI score [1, 11]: 6.50 ± 1.05 points
Average auricle thickness [1, 11]: 0.51 ± 0.05 mm
Average skin thickness (double layer) [1, 11]: 2.06 ± 0.25 mm
AD-SI score [1, 12]: 7.17 ± 1.47 points
Average auricle thickness [1, 12]: 0.65 ± 0.03 mm and 0.65 mm
Average skin thickness (double layer) [1, 12]: 2.23 ± 0.14 mm and 2.23 mm
